Here are results for 27 compounds from patent US5977130A, “Intimal hypertrophy inhibitors” (Taiho Pharmeutical Co., Ltd., priority 1996, dated 1999).

Structures can show the parent of a compound that is named as a salt.

Test [1] relates to intimal hypertrophy. Description: Intimal Hypertrophy Inhibiting Activity in Rats, test (1): balloon denudation of thoracic aorta. The test is classed as in vivo, male S.D. rats. The settings on record: Rattus norvegicus, 336 h, oral once a day, 14 days after denudation, read-out: Inhibition (%) of intimal hypertrophy (intima/media thickness ratio). As to the method:
(§1) Pharmacological Test (Intimal Hypertrophy Inhibiting Activity in Rats)
(§2) By use of various compounds which serve as active ingredients of the present invention, the following tests (1) and (2) were performed in accordance with the method described in Journal of Clinical Investigation,85 (1990) 2004.
Groups of 14- to 15-week-old male S.D. rats were used. A 3F balloon catheter was inserted in each rat, under etherification, through the right iliac artery to the aorta. While the balloon was inflated, the endothelium of the thoracic aorta was denuded. Subsequently, the balloon catheter was removed, and an antibiotic was added dropwise into the abdominal cavity, followed by saturing. Each drug was suspended in 0.5% methylcellulose, and a dose of 10 ml/kg was orally administered once a day, starting from 2 hours after denudation. To the controls were administered 0.5% methylcellulose.
The rats were sacrificed 14 days after denudation. The thoracic aorta was removed and fixed with 10% neutrally-buffered formalin. Six segments cut out from the lower part of each sample were processed by a customary method to thereby prepare paraffin sections. Six specimens of the sections from each rat were stained with hematoxylin-eosin. The thickness of the neoplastic intima at the site of maximal hypertrophy and that of the media at the same site were measured, and the ratio of intimal thickness to media thickness was calculated. Assessment was performed in terms of percentage of intimal hypertrophy inhibition as determined from the intima/media thickness ratios, using as standards the data from the groups to which drugs had not been administered.
The following four different compounds (a)-(d) were used as comparative compounds: […]

In test [2] the test system is intimal hypertrophy. As to the kind of experiment: Intimal Hypertrophy Inhibiting Activity in Rats, test (2): balloon denudation of left carotid artery. The settings on record: Dose 30 mg/kg, oral once a day, 14 days after denudation. The test is classed as in vivo, male S.D. rats. As to the method:
as §1, §2
Groups of 13- to 14-week-old male S.D. rats were used. A 2F balloon catheter was inserted in each rat under etherification through the right iliac artery to the left carotid artery. While the balloon was inflated, the endothelium of the left caroid artery was denuded. Subsequently, the balloon catheter was removed, and an antibiotic was added dropwise into the abdominal cavity, followed by saturing. Each drug was suspended in 0.5% methylcellulose, and a dose of 10 ml/kg was orally administered once a day, starting from 2 hours after denudation. To the controls were administered 0.5% methylcellulose.
The rats were sacrificed 14 days after denudation The left carotid artery was removed and fixed, through perfusion, with 10% buffered formalin. Each sample was divided into six segments and the segments were processed by a customary method to thereby prepare paraffin sections. Six specimens of the sections from each rat were stained with hematoxylin-eosin. The area of the neoplastic intima and that of the media were measured, and assessment was performed in terms of percentage of intimal hypertrophy inhibition as determined from the intima/media area ratios, using as standards the data from the groups to which drugs had not been administered.

Test [3] concerns intimal hypertrophy. The settings on record: background statement; cited from earlier work.

For `COc1ccc(C(=C2C(=O)Nc3cccnc32)c2ccc(OC)cc2)cc1` [Compound 8], the inhibition in vivo at 30 mg/kg in the test with intimal hypertrophy [1] stood at 28.9%.

Consider `COc1cc(C=C2C(=O)Nc3ccccc32)cc(OC)c1O` [Compound 32], for which, in the test with intimal hypertrophy [1], the inhibition in vivo at 30 mg/kg is 34%.

Take `O=C1Nc2ccccc2C1=C(c1ccccn1)c1ccccn1` [Compound 35, 3-(di-2-pyridylmethylene)-oxindole]: the “Inhibition (%) of intimal hypertrophy (intima/media area ratio)” value (from here on “Inhibition (%) … (intima/media area ratio)”) in the test on intimal hypertrophy [2] was found to be 36.8%.

Take `COc1ccc(C(c2ccc(OC)cc2)C2C(=O)Nc3ccccc32)cc1` (stereo not shown) [Compound 27, 3-[bis(4-methoxyphenyl)methyl]oxindole]: the inhibition in vivo at 30 mg/kg in the test on intimal hypertrophy [1] amounted to 19.7%.

For `O=C1Nc2ccccc2C1=C(c1ccccc1)c1ccccc1` [Compound 7], in the test on intimal hypertrophy [1], the inhibition in vivo at 30 mg/kg was determined as 34.2%.

With `COc1ccc(/C=C/C(=O)Nc2ccccc2C(=O)O)cc1OC` [a, Tranilast, reference compound], in the test with intimal hypertrophy [1], the inhibition in vivo at 30 mg/kg came out at 7.1% and the inhibition in vivo at 100 mg/kg was found to be 18.1%. Moreover, in the test with intimal hypertrophy [3], the “activity as intimal hypertrophy inhibitor” value is on record as “weak activity”.

For `COc1ccc(C=C2C(=O)Nc3ccccc32)cc1` [Compound 31, 3-(4-methoxybenzylidene)-oxindole], the inhibition in vivo at 30 mg/kg in the test with intimal hypertrophy [1] turned out to be 40%.

In the case of `CCOC(=O)CCCCCN1C(=O)C(=C(c2ccc(OC)cc2)c2ccc(OC)cc2)c2ccccc21` [Compound 22], in the test on intimal hypertrophy [1], the inhibition in vivo at 30 mg/kg was determined as 28%.

Take `CCOC(=O)CN1C(=O)C(=C(c2ccc(OC)cc2)c2ccc(OC)cc2)c2ccccc21` [Compound 18]: in the test with intimal hypertrophy [1], the inhibition in vivo at 30 mg/kg is 34.8%.

Take `COc1ccc(C(=C2C(=O)N(CCN(C)C)c3ccccc32)c2ccc(OC)cc2)cc1` [Compound 16, 1-dimethylaminoethyl-3-[bis(4-methoxyphenyl)methylene]oxindole.HCl]: the inhibition in vivo at 30 mg/kg in the test on intimal hypertrophy [1] worked out at 21.1%.

Regarding `COc1ccc(C(=C2C(=O)N(C)c3ccccc32)c2ccc(OC)cc2)cc1` [Compound 17], the inhibition in vivo at 30 mg/kg with intimal hypertrophy [1] amounted to 20.9%.

Turning to `COc1ccc(C(=C2C(=O)Nc3ccc(N(C)C)cc32)c2ccc(OC)cc2)cc1` [Compound 10], the inhibition in vivo at 30 mg/kg in the test with intimal hypertrophy [1] was found to be 14.8%.

For `CCOC(=O)c1ccc2c(c1)C(=C(c1ccc(C)cc1)c1ccc(C)cc1)C(=O)N2` [Compound 9], the inhibition in vivo at 30 mg/kg in the test on intimal hypertrophy [1] worked out at 26.6%.

Turning to `CON1C(=O)C(=Cc2cc(C(C)(C)C)c(O)c(C(C)(C)C)c2)c2ccc(Cl)cc21` [c, reference compound], the inhibition in vivo at 30 mg/kg with intimal hypertrophy [1] is -8.6%.

Turning to `O=C1Nc2ccc(O)cc2C1=Cc1cc2ccccc2[nH]1` [d, reference compound], the inhibition in vivo at 30 mg/kg in the test with intimal hypertrophy [1] was -0.1%.

Turning to `Cc1ccc(C(c2ccc(C)cc2)C2C(=O)Nc3ccccc32)cc1` (stereo not shown) [Compound 28], the inhibition in vivo at 30 mg/kg in the test with intimal hypertrophy [1] came out at 28.4%.

`CN(C)CCOc1ccc(C(=C2C(=O)Nc3ccccc32)c2ccc(OCCN(C)C)cc2)cc1` [Compound 6]: the inhibition in vivo at 30 mg/kg in the test with intimal hypertrophy [1] amounted to 14.7%.

For `COc1ccc(C(=C2C(=O)N(CC(=O)N(C)C)c3ccccc32)c2ccc(OC)cc2)cc1` [Compound 20], the inhibition in vivo at 30 mg/kg with intimal hypertrophy [1] amounted to 7.2%.

Regarding `COc1ccc(C(=C2C(=O)N(S(=O)(=O)c3ccc(C)cc3)c3ccccc32)c2ccc(OC)cc2)cc1` [Compound 25, 1-paratoluenesulfonyl-3-[bis(4-methoxyphenyl)methylene]oxindole], the inhibition in vivo at 30 mg/kg in the test with intimal hypertrophy [1] stood at 7.6%.

For `Nc1ccc(C(=C2C(=O)Nc3ccccc32)c2ccc(N)cc2)cc1` [Compound 33, 3-[bis(4-aminophenyl)methylene]-oxindole], in the test on intimal hypertrophy [2], the “Inhibition (%) … (intima/media area ratio)” value was determined as 32.7%.

Regarding `O=C1Nc2ccccc2C1=Cc1ccccn1` [Compound 38], the “Inhibition (%) … (intima/media area ratio)” value with intimal hypertrophy [2] stood at 42.0%.

For `O=C1Nc2ccccc2C1=C(c1ccc(O)cc1)c1ccc(O)cc1` [Compound 5], the inhibition in vivo at 30 mg/kg with intimal hypertrophy [1] came to 14.8%.

With `COC(=O)c1ccc(CN2C(=O)C(=C(c3ccc(OC)cc3)c3ccc(OC)cc3)c3ccccc32)cc1` [Compound 24], the inhibition in vivo at 30 mg/kg in the test on intimal hypertrophy [1] amounted to 35.1%.

On to `Cc1ccc(C(=C2C(=O)Nc3ccccc32)c2ccc(C)cc2)cc1` [Compound 2], for which, in the test on intimal hypertrophy [1], the inhibition in vivo at 30 mg/kg came out at 36.5% and the inhibition in vivo at 100 mg/kg is 42.3%.

In the case of `COc1ccc(C(=C2C(=O)Nc3ccccc32)c2ccc(OC)cc2)cc1` [Compound 1, 3-[bis(4-methoxyphenyl)methylene]-oxindole], in the test on intimal hypertrophy [1], the inhibition in vivo at 30 mg/kg was found to be 33.2% and the inhibition in vivo at 100 mg/kg worked out at 46.6%.

Take `Cc1ccc(C(=C2C(=O)Nc3cc(N)ccc32)c2ccc(C)cc2)cc1` [Compound 13]: the inhibition in vivo at 30 mg/kg in the test with intimal hypertrophy [1] was determined as 10.9%.

Consider `CC(C)c1cc(C=C2C(=O)Nc3ccccc32)cc(C(C)C)c1O` [b, reference compound], for which the inhibition in vivo at 30 mg/kg in the test on intimal hypertrophy [1] is -26%.
